System: Wnt3a-mediated β-catenin signaling in HEK293-TB cells
Assay type: cell-based

In the case of LPSDDAEFWCHVMY [dFz7-21-L6A], the “reduction in cellular potency” value is reported as about 800 fold.
